According to ChEMBL document CHEMBL2203141, “Heterologously expressed β-hydroxyl fatty acids from a metagenomic library of a marine sponge” (2012):
Calls of active or inactive are those of the source.

Legend:
[1] = Antifungal activity against Penicillium commune by serial two-fold dilution microtiter plate method; format: functional
[2] = Antifungal activity against […] mucilaginosa by serial two-fold dilution microtiter plate method; format: functional
Kluyveromyces marxianus = test: Antifungal activity against Kluyveromyces marxianus by serial two-fold dilution microtiter plate method; format: functional
Wickerhamomyces anomalus = test: Antifungal activity against Pichia anomala by serial two-fold dilution microtiter plate method; format: functional; conditions: Hansenula anomala
Penicillium roqueforti = test: Antifungal activity against Penicillium roqueforti by serial two-fold dilution microtiter plate method; format: functional
Aspergillus nidulans = test: Antifungal activity against Aspergillus nidulans by serial two-fold dilution microtiter plate method; format: functional
Aspergillus fumigatus = test: Antifungal activity against Aspergillus fumigatus by serial two-fold dilution microtiter plate method; format: functional
Escherichia coli = test: Antibacterial activity against Escherichia coli by broth dilution method; format: functional, organism-based
Candida albicans = test: Antifungal activity against Candida albicans by broth dilution; format: functional
Staphylococcus aureus = test: Antibacterial activity against methicillin-resistant Staphylococcus aureus by broth dilution method; format: functional, organism-based
Bacillus cereus = test: Antibacterial activity against Bacillus cereus by broth dilution method; format: functional

CCCCCCCCCCC[C@@H](O)CC(=O)O
10 µg/mL: MIC [1] | MIC [2] | MIC (Kluyveromyces marxianus) | MIC (Wickerhamomyces anomalus) | MIC (Penicillium roqueforti) | MIC (Aspergillus nidulans) | MIC (Aspergillus fumigatus)

CCCCCCCCCCCCC[C@@H](O)CC(=O)O
inactive: Activity (Escherichia coli) | Activity (Staphylococcus aureus)
12.5 µg/mL: MIC (Candida albicans)
6.25 µg/mL: MIC (Bacillus cereus)

CCCCCCCCC[C@@H](O)CC(=O)O
10 µg/mL: MIC [1] | MIC [2] | MIC (Kluyveromyces marxianus) | MIC (Wickerhamomyces anomalus) | MIC (Penicillium roqueforti) | MIC (Aspergillus nidulans) | MIC (Aspergillus fumigatus)
